Laboratory results taken from patent US10000501B2, “Inhibitors of HIF prolyl hydroxylase” (MERCK SHARP & DOHME CORP., priority 2014, dated 2018).
pIC50: −log10 of the molar value.

Target: T1, human HIF-PHD2 (Homo sapiens, UniProt Q9GZT9)
T1 construct: FLAG-tagged full length PHD2 expressed in and purified from baculovirus-infected Sf9 cells; FLAG; made in house; host or cells: baculovirus-infected Sf9 cells
Assay: HIF-PHD2 inhibition assay (hydroxylation of HIF-1α peptide, time resolved fluorescence)
Assay type: biochemical
Conditions: FLAG-tagged full length PHD2; 0.2 μM 2-oxoglutarate, 0.5 μM HIF-1α peptide
Description: To each well of a 384-well plate, 1 μL of test compounds in DMSO (final concentration ranging from 0.3 nM to 10 uM) were added into 20 μl of assay buffer (50 mM Tris pH 7.4/0.01% Tween-20/0.1 mg/ml bovine serum albumin/10 μM ferrous sulfate/1 mM sodium ascorbate/20 μg/ml catalase) containing 0.15 μg/ml FLAG-tagged full length PHD2 expressed in and purified from baculovirus-infected Sf9 cells. […] Purif.

T1 sequence (Q9GZT9 whole entry): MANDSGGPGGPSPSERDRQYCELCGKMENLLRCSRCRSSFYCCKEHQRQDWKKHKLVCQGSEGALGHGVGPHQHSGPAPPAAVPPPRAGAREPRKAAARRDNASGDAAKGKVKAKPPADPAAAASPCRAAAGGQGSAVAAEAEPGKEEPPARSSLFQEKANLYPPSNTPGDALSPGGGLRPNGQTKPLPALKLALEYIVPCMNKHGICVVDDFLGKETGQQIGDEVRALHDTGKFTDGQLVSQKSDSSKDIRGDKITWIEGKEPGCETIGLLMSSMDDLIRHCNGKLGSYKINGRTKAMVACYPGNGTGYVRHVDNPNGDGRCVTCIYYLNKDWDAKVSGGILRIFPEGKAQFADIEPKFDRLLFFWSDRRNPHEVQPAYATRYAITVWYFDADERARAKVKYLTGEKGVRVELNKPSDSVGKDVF

Going from `O=C(O)CNC(=O)c1c(O)c2c(n(Cc3ccc(OC(F)(F)F)cc3)c1=O)CCOC2` [Example 7, 2-(4-hydroxy-2-oxo-1-(4-(trifluoromethoxy)benzyl)-2,5,7,8-tetrahydro-1H-pyrano[4,3-b]pyridine-3-carboxamido)acetic acid] to `O=C(O)CNC(=O)c1c(O)c2c(n(-c3ccc(OC(F)(F)F)cc3)c1=O)CCOC2` [Example 36, 2-(4-Hydroxy-2-oxo-1-(4-(trifluoromethoxy)phenyl)-2,5,7,8-tetrahydro-1H-pyrano[4,3-b]pyridine-3-carboxamido)acetic acid], the pIC50 falls from 7.99 to 7.01 (0.98 log units).

`NC(=O)c1ccc(Cn2c3c(c(O)c(C(=O)NCC(=O)O)c2=O)CCOC3)cc1` [Example 64, 2-(1-(4-Carbamoylbenzyl)-4-hydroxy-2-oxo-2,5,6,8-tetrahydro-1H-pyrano[3,4-b]pyridine-3-carboxamido)acetic acid] and `O=C(O)CNC(=O)c1c(O)c2c(n(Cc3ccc(OC(F)F)cc3)c1=O)COCC2` [Example 49, 2-(1-(4-(difluoromethoxy)benzyl)-4-hydroxy-2-oxo-2,5,6,8-tetrahydro-1H-pyrano[3,4-b]pyridine-3-carboxamido)acetic acid] are within 0.2 log units of each other in pIC50: 7.51 for the first, 7.54 for the second.

`O=C(O)CNC(=O)c1c(O)c2c(n(Cc3cc(F)c(F)cc3F)c1=O)COCC2` [Example 43, 2-(4-hydroxy-2-oxo-1-(2,4,5-trifluorobenzyl)-2,5,6,8-tetrahydro-1H-pyrano[3,4-b]pyridine-3-carboxamido)acetic acid] and `O=C(O)CNC(=O)c1c(O)c2c(n(Cc3ccc(F)c(F)c3)c1=O)COCC2` [Example 54, 2-(1-(3,4-difluorobenzyl)-4-hydroxy-2-oxo-2,5,6,8-tetrahydro-1H-pyrano[3,4-b]pyridine-3-carboxamido)acetic acid] are within 0.2 log units of each other in pIC50: 7.58 for the first, 7.51 for the second.

Compared with `O=C(O)CNC(=O)c1c(O)c2c(n(Cc3ccn(-c4ccccc4)n3)c1=O)CCOC2` [Example 32, 2-(4-Hydroxy-2-oxo-1-((1-phenyl-1H-pyrazol-3-yl)methyl)-2,5,7,8-tetrahydro-1H-pyrano[4,3-b]pyridine-3-carboxamido)acetic acid], `CS(=O)(=O)c1ccc(Cn2c3c(c(O)c(C(=O)NCC(=O)O)c2=O)COCC3)cc1` [Example 11, 2-(4-hydroxy-1-(4-(methylsulfonyl)benzyl)-2-oxo-2,5,7,8-tetrahydro-1H-pyrano[4,3-b]pyridine-3-carboxamido)acetic acid] is 0.23 log units lower in pIC50: 7.92 for the first, 7.69 for the second. The first is the more potent here.

Going from `O=C(O)CNC(=O)c1c(O)c2c(n(Cc3ccc(-c4ccc(C(F)(F)F)cc4)cc3)c1=O)COCC2` [Example 65, 2-(4-Hydroxy-2-oxo-1-((4′-(trifluoromethyl)-[1,1′-biphenyl]-4-yl)methyl)-2,5,6,8-tetrahydro-1H-pyrano[3,4-b]pyridine-3-carboxamido)acetic acid] to `O=C(O)CNC(=O)c1c(O)c2c(n(Cc3ccc(C(F)(F)F)cc3)c1=O)C1CCC2C1` (centres unmarked) [Example 83, 2-(-4-hydroxy-2-oxo-1-(4-(trifluoromethyl)benzyl)-1,2,5,6,7,8-hexahydro-5,8-methanoquinoline-3-carboxamide)acetic acid], the pIC50 falls from 7.63 to 7.34 (0.29 log units). The first is the more potent here.

`CC(C)Oc1ccc(Cn2c3c(c(O)c(C(=O)NCC(=O)O)c2=O)COCC3)cc1` [Example 13, 2-(4-hydroxy-1-(4-isopropoxybenzyl)-2-oxo-2,5,7,8-tetrahydro-1H-pyrano[4,3-b]pyridine-3-carboxamido)acetic acid] showed a pIC50 of 7.69.
